Measured values: US20070020195A1, “Nasally administered appetite suppressants” (priority 2005, published 2007)
Several values for one entry are separate records, joined by “and”; a condition that tells them apart may be missing. Equal values may be shown once.

Columns and labels:
[1] = cited from earlier work
[2] = Dose-escalation food intake trial in obese subjects with Universal Eating Monitor (Examples 2-5); format: in vivo, human
[3] = Double-blind crossover food intake study, intranasal lidocaine vs saline before a fried chicken meal; format: in vivo, human; conditions: four subjects
Protocol: Three males and one female between 23 and 60 years of age with BMI's less than 25 kg/m2 participated in a study of food intake. The subjects presented to the food intake laboratory at noon after an overnight fast except for water from 9 pm the prior night on two occasions a week apart. They had 10 mg (0.5 cc) of lidocaine or 0.5 cc normal saline administered in each nostril 20 minutes before presentation of a meal consisting of fried chicken pieces and water. They were allowed to eat and drink as much or as little as they wished over a 20-minute period, and there were more chicken pieces than they could reasonably be expected to eat at one sitting. The order of the lidocaine and saline was balanced and the study was performed in a double-blind fashion.
The four subjects consumed 15%, 11%, 27% and 33% less on the lidocaine week compared to the placebo week. […] Sibutramine, an obesity drug, gives an 8% weight loss at 6 months and causes a 12% decrease in food intake.

[4] = 70 kg adult; cited from earlier work
[5] = applied topically; cited from earlier work

Compound: CC(C)CC(N(C)C)C1(c2ccc(Cl)cc2)CCC1 (stereo not shown) [Sibutramine]
- weight loss ([1]; at 6 months): 8%
- decrease in food intake ([1]; in vivo): 12%

Compound: Cn1c(=O)c2c(ncn2C)n(C)c1=O [caffeine]
- effect on energy expenditure ([2]; about 200 mg caffeine orally or nasally added to lidocaine, Example 4): increasing energy expenditure

Compound: CCN(CC)CC(=O)Nc1c(C)cccc1C [lidocaine]
- food consumption with escalating doses ([2]; 2.5, 10 and 25 mg lidocaine per nostril vs saline, BMI 30-40, Example 2): reduction in food consumption
- reduction in food consumed on lidocaine week compared to placebo week, individual subjects ([3]; 10 mg (0.5 cc) lidocaine in each nostril 20 minutes before meal, BMI less than 25 kg/m2): 15% and 11% and 27% and 33%
- overall reduction in food intake ([3]; 10 mg lidocaine in each nostril 20 minutes before meal, p<0.02): 21.5%+10.2%
- maximum safe dosage for topical anesthetic [4]: 500 mg
- duration of anesthesia [5]: 30 to 45 min
- time to peak anesthesia [5]: 2 to 5 min

Compound: leptin
- anorexiant effect ([2]; about 20 mg per day leptin added to lidocaine, Example 5): further anorexiant effect
